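Protocol summary: plate cells (96-well), add compound at 5 concentrations, incubate 48 h, interpolate endpoints linearly. The concentration for full growth arrest is given as TGI.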
Experiments:
Assay in all cases: NCI-60 cell line screen, 48 h
MDA-MB-435 = test system: MDA-MB-435
UACC-257 melanoma = test system: UACC-257 melanoma
M14 melanoma = test system: M14 melanoma
OVCAR-4 ovarian = test system: OVCAR-4 ovarian
NCI/ADR-RES ovarian = test system: NCI/ADR-RES ovarian
786-0 renal = test system: 786-0 renal
SK-MEL-5 melanoma = test system: SK-MEL-5 melanoma
DU-145 prostate = test system: DU-145 prostate
NCI-H460 lung = test system: NCI-H460 lung
SNB-19 CNS = test system: SNB-19 CNS
SN12C renal = test system: SN12C renal
A498 renal = test system: A498 renal
HCC-2998 colon = test system: HCC-2998 colon
SK-OV-3 ovarian = test system: SK-OV-3 ovarian
SNB-75 CNS = test system: SNB-75 CNS
HCT-15 colon = test system: HCT-15 colon
HOP-92 NSCLC = test system: HOP-92 NSCLC
UACC-62 melanoma = test system: UACC-62 melanoma
U251 CNS = test system: U251 CNS
HOP-62 NSCLC = test system: HOP-62 NSCLC
SK-MEL-28 melanoma = test system: SK-MEL-28 melanoma
SK-MEL-2 melanoma = test system: SK-MEL-2 melanoma
MDA-MB-231 breast = test system: MDA-MB-231 breast
RXF 393 renal = test system: RXF 393 renal
KM12 colon = test system: KM12 colon
MDA-N = test system: MDA-N
BT-549 breast = test system: BT-549 breast
HL-60(TB) leukemia = test system: HL-60(TB) leukemia
SR leukemia = test system: SR leukemia
HS 578T breast = test system: HS 578T breast
UO-31 renal = test system: UO-31 renal
EKVX NSCLC = test system: EKVX NSCLC
SF-539 CNS = test system: SF-539 CNS
SF-295 CNS = test system: SF-295 CNS
K-562 leukemia = test system: K-562 leukemia
PC-3 prostate = test system: PC-3 prostate
OVCAR-5 ovarian = test system: OVCAR-5 ovarian
TK-10 renal = test system: TK-10 renal
OVCAR-3 ovarian = test system: OVCAR-3 ovarian
SF-268 CNS = test system: SF-268 CNS
NCI-H226 lung = test system: NCI-H226 lung
RPMI-8226 leukemia = test system: RPMI-8226 leukemia
MALME-3M melanoma = test system: MALME-3M melanoma
ACHN renal = test system: ACHN renal
MCF7 breast = test system: MCF7 breast
MOLT-4 leukemia = test system: MOLT-4 leukemia
OVCAR-8 ovarian = test system: OVCAR-8 ovarian
SW-620 colon = test system: SW-620 colon
CAKI-1 renal = test system: CAKI-1 renal
NCI-H23 lung = test system: NCI-H23 lung
T-47D breast = test system: T-47D breast
COLO 205 colon = test system: COLO 205 colon
HT29 colon = test system: HT29 colon
A549 NSCLC = test system: A549 NSCLC
IGROV1 ovarian = test system: IGROV1 ovarian
HCT-116 colon = test system: HCT-116 colon
CCRF-CEM leukemia = test system: CCRF-CEM leukemia
LOX IMVI melanoma = test system: LOX IMVI melanoma
NCI-H522 lung = test system: NCI-H522 lung

CC12CCC(C(Br)(Br)C1=O)C2(C)C (stereo not drawn)
TGI (MDA-MB-435): 2240 nM | TGI (UACC-257 melanoma): 16.7 µM | TGI (M14 melanoma): 3.98 µM | TGI (OVCAR-4 ovarian): 5.58 µM | TGI (NCI/ADR-RES ovarian): 1060 nM | TGI (786-0 renal): 3.84 µM | TGI (SK-MEL-5 melanoma): 4.74 µM | TGI (DU-145 prostate): 37.1 µM | TGI (NCI-H460 lung): 27.2 µM | TGI (SNB-19 CNS): > 57.6 µM | TGI (SN12C renal): 5.84 µM | TGI (A498 renal): 17.5 µM | TGI (HCC-2998 colon): 4.91 µM | TGI (SK-OV-3 ovarian): > 31.6 µM | TGI (SNB-75 CNS): 11.6 µM | TGI (HCT-15 colon): 3.57 µM | TGI (HOP-92 NSCLC): 2810 nM | TGI (UACC-62 melanoma): 10.1 µM | TGI (U251 CNS): 224 nM | TGI (HOP-62 NSCLC): 13.6 µM | TGI (SK-MEL-28 melanoma): 6.46 µM | TGI (SK-MEL-2 melanoma): 980 nM | TGI (MDA-MB-231 breast): 1510 nM | TGI (RXF 393 renal): 2540 nM | TGI (KM12 colon): 16.1 µM | TGI (MDA-N): 2650 nM | TGI (BT-549 breast): 2680 nM | TGI (HL-60(TB) leukemia): 149 nM | TGI (SR leukemia): 12.9 µM | TGI (HS 578T breast): 9.29 µM | TGI (UO-31 renal): 3.25 µM | TGI (EKVX NSCLC): 2810 nM | TGI (SF-539 CNS): 16.9 µM | TGI (SF-295 CNS): 22.4 µM | TGI (K-562 leukemia): 13.1 µM | TGI (PC-3 prostate): 7.98 µM | TGI (OVCAR-5 ovarian): 6.57 µM | TGI (TK-10 renal): 11 µM | TGI (OVCAR-3 ovarian): 4.1 µM | TGI (SF-268 CNS): 1220 nM | TGI (NCI-H226 lung): 8.64 µM | TGI (RPMI-8226 leukemia): 1780 nM | TGI (MALME-3M melanoma): 1000 nM | TGI (ACHN renal): 7.69 µM | TGI (MCF7 breast): > 36.8 µM | TGI (MOLT-4 leukemia): 2530 nM | TGI (OVCAR-8 ovarian): 11.3 µM | TGI (SW-620 colon): 710 nM | TGI (CAKI-1 renal): 14.9 µM | TGI (NCI-H23 lung): 2210 nM | TGI (T-47D breast): 1020 nM | TGI (COLO 205 colon): 14.7 µM | TGI (HT29 colon): 3.19 µM | TGI (A549 NSCLC): > 100 µM | TGI (IGROV1 ovarian): 516 nM | TGI (HCT-116 colon): 3.71 µM | TGI (CCRF-CEM leukemia): 196 nM | TGI (LOX IMVI melanoma): 11.3 µM | TGI (NCI-H522 lung): 155 nM

C[N+](C)(CCNC(=O)c1cccc2cc3ccccc3nc12)Cc1ccc([N+](=O)[O-])cc1
TGI (MDA-MB-435): > 100000 nM | TGI (UACC-257 melanoma): > 100 µM | TGI (M14 melanoma): > 100 µM | TGI (OVCAR-4 ovarian): > 100 µM | TGI (NCI/ADR-RES ovarian): > 100000 nM | TGI (786-0 renal): > 100 µM | TGI (SK-MEL-5 melanoma): > 100 µM | TGI (DU-145 prostate): > 100 µM | TGI (NCI-H460 lung): > 100 µM | TGI (SNB-19 CNS): > 100 µM | TGI (SN12C renal): > 100 µM | TGI (A498 renal): > 100 µM | TGI (HCC-2998 colon): > 100 µM | TGI (SK-OV-3 ovarian): > 100 µM | TGI (SNB-75 CNS): > 100 µM | TGI (HCT-15 colon): > 100 µM | TGI (HOP-92 NSCLC): > 100000 nM | TGI (UACC-62 melanoma): > 100 µM | TGI (U251 CNS): > 100000 nM | TGI (HOP-62 NSCLC): > 100 µM | TGI (SK-MEL-28 melanoma): > 100 µM | TGI (SK-MEL-2 melanoma): > 100000 nM | TGI (MDA-MB-231 breast): > 100000 nM | TGI (RXF 393 renal): > 100000 nM | TGI (KM12 colon): > 100 µM | TGI (MDA-N): > 100000 nM | TGI (BT-549 breast): > 100000 nM | TGI (HL-60(TB) leukemia): > 100000 nM | TGI (SR leukemia): > 100 µM | TGI (HS 578T breast): > 100 µM | TGI (UO-31 renal): > 100 µM | TGI (EKVX NSCLC): > 100000 nM | TGI (SF-539 CNS): > 100 µM | TGI (SF-295 CNS): > 100 µM | TGI (K-562 leukemia): > 100 µM | TGI (PC-3 prostate): > 100 µM | TGI (OVCAR-5 ovarian): > 100 µM | TGI (TK-10 renal): > 100 µM | TGI (OVCAR-3 ovarian): > 100 µM | TGI (SF-268 CNS): > 100000 nM | TGI (NCI-H226 lung): > 100 µM | TGI (RPMI-8226 leukemia): > 100000 nM | TGI (MALME-3M melanoma): > 100000 nM | TGI (ACHN renal): > 100 µM | TGI (MCF7 breast): > 100 µM | TGI (MOLT-4 leukemia): > 100000 nM | TGI (OVCAR-8 ovarian): > 100 µM | TGI (SW-620 colon): > 100000 nM | TGI (CAKI-1 renal): > 100 µM | TGI (NCI-H23 lung): > 100000 nM | TGI (T-47D breast): > 100000 nM | TGI (COLO 205 colon): > 100 µM | TGI (HT29 colon): > 100 µM | TGI (A549 NSCLC): > 100 µM | TGI (IGROV1 ovarian): > 100000 nM | TGI (HCT-116 colon): > 100 µM | TGI (CCRF-CEM leukemia): > 100000 nM | TGI (LOX IMVI melanoma): > 100 µM | TGI (NCI-H522 lung): > 100000 nM

Reference: PubChem BioAssay (NCI)
